# Data reported in US20100204249A1, “SECRETORY PHOSPHOLIPASE A2 (SPLA2) INHIBITOR AND NIACIN DRUG COMPOSITIONS AND METHODS FOR TREATING CARDIOVASCULAR DISEASE AND DYSLIPIDEMIA” (priority 2009, published 2010).
# Tests used:
# [1] = system: human subjects with stable CAD; details: oral, once or twice a day, total daily 100-1000 mg, all dosages tested; 361 subjects; cited from earlier work
# [2] = system: human subjects with stable CAD; test: Change in TG levels at eight weeks, A-002 and/or niacin drugs, subjects with stable CAD; details: for Baseline Mean TG: before trial period; for Baseline Mean TG / Week 8 Mean TG: stable CAD; for Difference versus placebo (TG % change) / % change versus baseline (TG) / Week 8 Mean TG: week 8; for % change versus baseline (TG): ANCOVA subject-specific percent change from baseline; for Change from baseline (mean TG): week 8 versus baseline
# Source text: (§1) 46 subjects from the above once-a-day and twice-a-day A-002 studies were identified as receiving niacin drugs before and during the trial period. 45 of these 46 subjects were also receiving one or more statins before and during the trial period. The niacin drugs included niacin, nicotinic acid, acipimox, ERN (Niaspan®), Niaspan® in combination with lovastatin (Advicor®), and/or Niaspan® in combination with simvastatin (Simcor®). Of the 46 niacin subjects, twelve were concomitantly administered placebo rather than A-002 (i.e., niacin drug only), four were administered 100 mg of A-002 daily, five were administered 200 mg of A-002 daily, five were administered 250 mg of A-002 daily, thirteen were administered 500 mg of A-002 daily, and seven were administered 1000 mg of A-002 daily.
# (§2) The change from baseline HDL and TG levels at eight weeks was determined for each of the subjects receiving niacin drugs, and the percentage increase or decrease in these levels was determined using an analysis of covariance (ANCOVA) model that calculated subject-specific percent change from baseline.
# [3] = cited from earlier work
# [4] = system: human subjects with stable CAD; test: Change in HDL levels at eight weeks, A-002 and/or niacin drugs, subjects with stable CAD; details: for Baseline Mean HDL: before trial period; for Baseline Mean HDL / Week 8 Mean HDL: stable CAD; for Difference versus placebo (HDL % change) / % change versus baseline (HDL) / Week 8 Mean HDL: week 8; for % change versus baseline (HDL): ANCOVA subject-specific percent change from baseline; for Change from baseline (mean HDL): week 8 versus baseline
# Source text: as §1, §2
# sPLA2 = details: cited from earlier work
# [5] = eight weeks, magnitude of decrease
SMILES,"serum LDL, LDL particle, small LDL particle, oxidized LDL, total cholesterol, ApoB, TG, sPLA2, CRP, and IL-6 levels [1]",Baseline Mean TG [2] [mg/dL],Difference versus placebo (TG % change) [2],% change versus baseline (TG) [2],Week 8 Mean TG [2] [mg/dL],Change from baseline (mean TG) [2],terminal half-life (t1/2) ([3]; in vivo),absorption and hydrolysis to the active A-001 molecule ([3]; prodrug),Baseline Mean HDL [4] [mg/dL],"decrease in HDL versus baseline [4, 5] [%]",Difference versus placebo (HDL % change) [4],% change versus baseline (HDL) [4] [%],Week 8 Mean HDL [4] [mg/dL],Change from baseline (mean HDL) [4] [mg/dL],type of sPLA2 inhibition (sPLA2),"increase in TG versus placebo ([2]; eight weeks, magnitude of increase) [%]","decrease in HDL versus placebo [4, 5] [%]"
"CCc1c(C(=O)C(N)=O)c2c(OCC(=O)OC)cccc2n1Cc1ccccc1 [A-002, [[3-(2-Amino-1,2-dioxoethyl)-2-ethyl-1-(phenylmethyl)-1H-indol-4-yl]oxy]acetic acid methyl ester]",decrease,165.83,−2.6%,−3.7%,159.04,-6.79 mg/dL,approximately ten,rapidly absorbed and hydrolyzed,47.80,2.0,+0.3%,−2.0,46.28,-1.52,,,
CCc1c(C(=O)C(N)=O)c2c(OCC(=O)O)cccc2n1Cc1ccccc1 [A-001],,,,,,,,,,,,,,,competitive inhibitor,,
"O=C(O)c1cccnc1 [Niacin, pyridine-3-carboxylic acid]",,129.25,+3.4%,+9.7%,133.42,+4.17 mg/dl,,,50.67,6.2,−3.9%,−6.2,46.75,-3.92,,3.4,3.9
